Source: patent publication US20230159510A1, “NOVEL PRMT5 INHIBITORS” (AMGEN INC., priority 2020, published 2023)
pIC50: −log10 of the molar value. Where two headings read alike, the source gives them in different places.

Key:
HCT116 MTAP null cells = test: HCT116 proliferation assay, MTAP null cells (CellTiter-Glo, 6 days); type: cell-based; details: read-out: Protif_ HCT116-MTAP null IC50
In short: (§1)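 Cells were plated in RPMI 1640 with 10% fetal bovine serum and left overnight at 37° C and 5% CO2. Compound was then added as an 8- or 9-point 1:3 dilution series from a top concentration of 1 or 10 µM, alongside a DMSO-only control. Viability was read by luminescence.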

HCT116 WT cells = test: HCT116 proliferation assay, WT cells (CellTiter-Glo, 6 days); type: cell-based; details: read-out: Prolif_HCT116-WT IC50
In short: as §1

PRMT5/MEP50 = PRMT5/MEP50 (Homo sapiens, UniProt O14744); test: MTase-Glo methyl transferase assay, Method A (Histone H4 peptide, 1 µM MTA, 24 h pre-incubation); type: biochemical; design: made in house; details: read-out: PRMT5 MTase Glo Ki (nM, Meth. A)
Sequence of PRMT5/MEP50 (O14744 whole entry): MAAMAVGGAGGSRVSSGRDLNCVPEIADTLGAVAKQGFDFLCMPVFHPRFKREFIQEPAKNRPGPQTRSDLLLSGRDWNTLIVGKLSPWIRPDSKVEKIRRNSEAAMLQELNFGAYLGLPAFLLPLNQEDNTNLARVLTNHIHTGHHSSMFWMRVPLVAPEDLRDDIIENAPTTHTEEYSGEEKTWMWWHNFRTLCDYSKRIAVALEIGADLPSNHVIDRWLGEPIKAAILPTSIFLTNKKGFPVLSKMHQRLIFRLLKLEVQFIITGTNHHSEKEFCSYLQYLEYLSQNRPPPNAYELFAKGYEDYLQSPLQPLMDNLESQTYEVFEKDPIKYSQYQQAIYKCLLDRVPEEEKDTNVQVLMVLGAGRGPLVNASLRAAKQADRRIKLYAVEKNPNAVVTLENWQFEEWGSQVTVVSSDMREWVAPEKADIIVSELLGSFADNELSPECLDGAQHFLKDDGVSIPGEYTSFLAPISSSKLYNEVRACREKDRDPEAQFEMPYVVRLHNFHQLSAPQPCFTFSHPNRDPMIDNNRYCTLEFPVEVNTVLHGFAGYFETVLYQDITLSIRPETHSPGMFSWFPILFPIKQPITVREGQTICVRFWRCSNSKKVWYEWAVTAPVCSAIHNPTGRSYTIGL
Sequence of PRMT5/MEP50 (Q9BQA1 whole entry partner): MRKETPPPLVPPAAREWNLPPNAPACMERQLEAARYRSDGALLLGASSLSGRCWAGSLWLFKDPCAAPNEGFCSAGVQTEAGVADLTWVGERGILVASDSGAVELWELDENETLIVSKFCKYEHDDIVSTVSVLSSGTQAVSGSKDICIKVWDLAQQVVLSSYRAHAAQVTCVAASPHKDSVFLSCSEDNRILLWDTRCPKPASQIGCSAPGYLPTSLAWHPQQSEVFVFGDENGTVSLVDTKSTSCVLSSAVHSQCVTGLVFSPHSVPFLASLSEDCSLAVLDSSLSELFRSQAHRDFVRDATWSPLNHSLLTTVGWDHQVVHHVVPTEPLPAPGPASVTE
In short: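 PRMT5/MEP50 (10 nM) pre-incubated 24 h with compound, 5 µM SAM and 1 µM MTA, then reaction started with 1 µM Histone H4 (1-21) peptide and run 2 h at room temperature in Tris pH 8.0 buffer. SAH formed detected by MTase-Glo luminescence; IC50 and KI from dose-response curves.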

Row | Structure (SMILES) | pIC50 (HCT116 MTAP null cells; HCT116-MTAP null, 144 h) | pIC50 (HCT116 WT cells; Homo sapiens, HCT-116, 144 h) | Ki (PRMT5/MEP50) [nM] | pIC50 (HCT116 MTAP null cells) | pIC50 (HCT116 WT cells) | pIC50 (HCT116 MTAP null cells; 144 h)
1 | Cc1cc2cc(C(=O)N(Cc3ccc(C4CCOCC4)cn3)[C@H](C)c3ncccn3)ccc2nc1N [Example 559, 2-amino-3-methyl-N-((1R)-1-(2-pyrimidinyl)ethyl)-N-((5-(tetrahydro-2H-pyran-4-yl)-2-pyridinyl)methyl)-6-quinolinecarboxamide] | 6.83 | 5.66 | 0.07 | – | – | –
2 | Cc1nc(CN(C(=O)c2cnc3nc(N)c(Br)cc3c2)[C@H](C)c2ncccn2)ccc1Br (single isomer, unassigned) [Example 470] | 7.03 | 5.66 | 0.09 | – | – | –
3 | Cc1cc2nc(N)c(C)cc2cc1C(=O)N(Cc1ccc(C(F)(F)F)cn1)CC(C)C [Example 539, 2-amino-N-isobutyl-3,7-dimethyl-N-((5-(trifluoromethyl)pyridin-2-yl)methyl)quinoline-6-carboxamide] | 6.48 | 5.15 | 0.12 | – | – | –
4 | C[C@H](c1ncccn1)N(Cc1ccc(C(F)F)cn1)C(=O)c1cnc2nc(N)c(Br)cc2c1 [Example 407, 7-amino-6-bromo-N-((5-(difluoromethyl)-2-pyridinyl)methyl)-N-((1R)-1-(2-pyrimidinyl)ethyl)-1,8-naphthyridine-3-carboxamide] | 6.54 | < 5.00 | 0.11 | – | – | –
5 | Cc1cc2cc(C(=O)N(Cc3ccc(C(F)(F)F)cn3)[C@H](C)c3ncc(F)cn3)ccc2nc1N (single isomer, unassigned) [Example 528] | 7.24 | 6.05 | 0.14 | – | – | –
6 | Cc1cc2cc(C(=O)N(Cc3ccc(C#N)cn3)[C@@H](c3ncccn3)C3CC3)ccc2nc1N [Example 423, 2-amino-N-((5-cyano-2-pyridinyl)methyl)-N-((R)-cyclopropyl(2-pyrimidinyl)methyl)-3-methyl-6-quinolinecarboxamide] | 7.27 | 5.74 | 0.07 | – | – | –
7 | Nc1nc2ncc(C(=O)N(Cc3ccc(C(F)(F)F)cn3)Cc3ncccc3F)cc2cc1Br [Example 321, 7-amino-6-bromo-N-((3-fluoro-2-pyridinyl)methyl)-N-((5-(trifluoromethyl)-2-pyridinyl)methyl)-1,8-naphthyridine-3-carboxamide] | 6.54 | < 5.00 | 0.15 | – | – | –
8 | Cc1cc2cc(C(=O)N(Cc3cccc(C(F)(F)F)n3)[C@H](C)c3ncccn3)ccc2nc1N (single isomer, unassigned) [Example 526] | 6.49 | < 5.00 | 0.33 | – | – | –
9 | Cc1cc2cc(C(=O)N(Cc3ccc(Cl)c(C)n3)[C@H](C)c3ncccn3)ccc2nc1N (single isomer, unassigned) [Example 468] | 7.47 | 6.07 | < 0.1 | – | – | –
10 | C[C@H](c1ncccn1)N(Cc1ccc(C#N)cn1)C(=O)c1ccc2nc(N)c(Cl)cc2c1 [Example 408, 2-amino-3-chloro-N-((5-cyano-2-pyridinyl)methyl)-N-((1R)-1-(2-pyrimidinyl)ethyl)-6-quinolinecarboxamide] | 6.22 | < 5.00 | 0.13 | – | – | –
11 | Cc1cc2cc(C(=O)N(Cc3ccc(C(F)(F)F)nc3)[C@H](C)c3ncccn3)ccc2nc1N (single isomer, unassigned) [Example 477] | 6.71 | 5.25 | 0.11 | – | – | –
12 | Cc1cc2cc(C(=O)N(Cc3ccc(C(F)(F)F)cn3)Cc3cnc(N)s3)ccc2nc1N [Example 305, 2-amino-N-((2-amino-1,3-thiazol-5-yl)methyl)-3-methyl-N-((5-(trifluoromethyl)-2-pyridinyl)methyl)-6-quinolinecarboxamide] | 6.57 | 5.06 | 15.1 | – | – | –
13 | Cc1cc2cc(C(=O)N(Cc3ccc(C(F)(F)F)cn3)[C@H](C)c3cnccn3)cnc2nc1N [Example 538, 7-amino-6-methyl-N-((1R)-1-(2-pyrazinyl)ethyl)-N-((5-(trifluoromethyl)-2-pyridinyl)methyl)-1,8-naphthyridine-3-carboxamide] | 6.14 | < 5.00 | 0.68 | – | – | –
14 | Cc1cc2cc(C(=O)N(Cc3ccc(C(F)F)cn3)[C@H](C)c3ncccn3)ccc2nc1N [Example 508, 2-amino-N-((5-(difluoromethyl)-2-pyridinyl)methyl)-3-methyl-N-((1R)-1-(2-pyrimidinyl)ethyl)-6-quinolinecarboxamide] | 7.25 | 5.77 | 0.73 | – | – | –
15 | C[C@H](c1ncccn1)N(Cc1ccc(C(F)(F)F)cn1)C(=O)c1cnc2nc(N)c(Cl)cc2c1 [Example 420, 7-amino-6-chloro-N-((1R)-1-(2-pyrimidinyl)ethyl)-N-((5-(trifluoromethyl)-2-pyridiny1)methyl)-1,8-naphthyridine-3-carboxamide] | 6.65 | 5.46 | 0.18 | – | – | –
16 | C[C@H](c1ccc(F)cc1F)N(Cc1ccc(C(F)(F)F)cn1)C(=O)c1cnc2nc(N)c(Br)cc2c1 [Example 346, 7-amino-6-bromo-N-((1R)-1-(2,4-difluorophenyl)ethyl)-N-((5-(trifluoromethyl)-2-pyridinyl)methyl)-1,8-naphthyridine-3-carboxamide] | 7.09 | 5.80 | 0.04 | – | – | –
17 | Cc1cc2cc(C(=O)N(Cc3ccc(Cl)cn3)[C@H](C)c3ncccc3F)ccc2nc1N [Example 401, 2-amino-N-((5-chloro-2-pyridinyl)methyl)-N-((1R)-1-(3-fluoro-2-pyridinyl)ethyl)-3-methyl-6-quinolinecarboxamide] | 7.29 | 5.80 | 0.08 | – | – | –
18 | Cc1cc2cc(C(=O)N(Cc3ccc(N4CC5(COC5)C4)cn3)[C@H](C)c3ncccn3)ccc2nc1N [Example 556, (R)-N-((5-(2-oxa-6-azaspiro[3.3]heptan-6-yl)pyridin-2-yl)methyl)-2-amino-3-methyl-N-(1-(pyrimidin-2-yl)ethyl)quinoline-6-carboxamide] | 6.47 | 5.00 | 4.1 | – | – | –
19 | Cc1cc2cc(C(=O)N(Cc3ccc(C(F)(F)F)cn3)[C@@H]3CCC[C@H]3O)ccc2nc1N [Example 362, 2-amino-N-((1R,2R)-2-hydroxycyclopentyl)-3-methyl-N-((5-(trifluoromethyl)-2-pyridinyl)methyl)-6-quinolinecarboxamide] | 6.97 | 5.61 | 0.11 | – | – | –
20 | Cc1cc2cc(C(=O)N(Cc3ncc(C(F)(F)F)cc3F)[C@H](C)c3ncccc3F)ccc2nc1N [Example 391, 2-amino-N-((1R)-1-(3-fluoro-2-pyridinyl)ethyl)-N-((3-fluoro-5-(trifluoromethyl)-2-pyridinyl)methyl)-3-methyl-6-quinolinecarboxamide] | 6.78 | 5.32 | 0.01 | – | – | –
21 | Cc1cc2cc(C(=O)N(Cc3ccc4[nH]ncc4c3)Cc3ccc(C(F)(F)F)cn3)ccc2nc1N [Example 369, 2-amino-N-(1H-indazol-5-ylmethyl)-3-methyl-N-((5-(trifluoromethyl)-2-pyridinyl)methyl)-6-quinolinecarboxamide] | – | – | 0.17 | 6.86 | 5.47 | –
22 | Cc1cc2cc(C(=O)N(Cc3ncccc3F)Cc3ncc(F)cc3F)ccc2nc1N [Example 387, 2-amino-N-((3,5-difluoro-2-pyridinyl)methyl)-N-((3-fluoro-2-pyridinyl)methyl)-3-methyl-6-quinolinecarboxamide] | 6.05 | < 5.00 | 1.67 | – | – | –
23 | C[C@H](c1ncccn1)N(Cc1ccc(C(F)(F)F)cn1)C(=O)c1ccc2nc(N)c(I)cc2c1 (single isomer, unassigned) [Example 544] | 7.68 | 6.14 | 0.08 | – | – | –
24 | Cc1cc2cc(C(=O)N(Cc3ccc(C#N)cn3)[C@@H]3CCC[C@H]3O)ccc2nc1N [Example 365, 2-amino-N-((5-cyanopyridin-2-yl)methyl)-N-((1R,2R)-2-hydroxycyclopentyl)-3-methylquinoline-6-carboxamide] | 6.41 | < 5.00 | 0.42 | – | – | –
25 | CC[C@H](c1ncccn1)N(Cc1cnc(C(F)(F)F)cn1)C(=O)c1ccc2nc(N)c(C)cc2c1 (single isomer, unassigned) [Example 516] | 6.81 | 5.44 | 0.14 | – | – | –
26 | Cc1cc2cc(C(=O)N(Cc3ccc(C(F)F)cn3)[C@H](C)c3ncccn3)cnc2nc1N [Example 409, 7-amino-N-((5-(difluoromethyl)-2-pyridinyl)methyl)-6-methyl-N-((1R)-1-(2-pyrimidinyl)ethyl)-1,8-naphthyridine-3-carboxamide] | 6.16 | < 5.00 | 0.24 | – | – | –
27 | Cc1cc2cc(C(=O)N(Cc3ccc(C(F)(F)F)cn3)[C@@H]3CCOc4ncccc43)ccc2nc1N (single isomer, unassigned) [Example 459] | 7.11 | 5.63 | 0.25 | – | – | –
28 | C[C@H](c1ncn(C)n1)N(Cc1ccc(C(F)F)cn1)C(=O)c1cnc2nc(N)c(Br)cc2c1 (single isomer, unassigned) [Example 535] | 6.26 | < 5.00 | 0.34 | – | – | –
29 | Cc1cc2cc(C(=O)N(Cc3ccc(C(F)(F)F)cn3)Cc3ncccn3)ccc2nc1N [Example 338, 2-amino-3-methyl-N-(2-pyrimidinylmethyl)-N-((5-(trifluoromethyl)-2-pyridinyl)methyl)-6-quinolinecarboxamide] | – | < 5.00 | 0.8 | – | – | 6.63
